From patent publication US20260183350A1, “ANTIBIOTIC-RESISTANT BACTERIA” (priority 2022, published 2026)

How the values were obtained:
[1] = system: NDM-1 Enterobacter cloacae; assay: Carbon utilisation assay; format: cell-based; conditions: anaerobic; M9 minimal medium, 0.5% (w/v) carbon source
[2] = system: NDM-1 Escherichia coli; assay: Carbon utilisation assay; format: cell-based; conditions: anaerobic; M9 minimal medium, 0.5% (w/v) carbon source
[3] = system: NDM-1 Klebsiella pneumoniae; assay: Carbon utilisation assay; format: cell-based; conditions: anaerobic; M9 minimal medium, 0.5% (w/v) carbon source
[4] = system: vancomycin-resistant E. faecium; assay: VRE nutrient utilization protocol: carbon sources; format: cell-based, Enterococcus faecium; conditions: aerobic; VRE minimal medium
Procedure: (§1) VRE minimal media consists of potassium phosphate monobasic (4 g/L), potassium phosphate dibasic (14 g/L), sodium citrate (1 g/L), magnesium sulphate (0.2 g/L), ammonium sulphate (2 g/L), adenosine (0.04 g/L), thymine (0.04 g/L), Kao and Michayluk vitamin solution [Sigma, K3129, 50× Stock](5×), glucose (1 g/L) and amino acid solution [Sigma, R7131, RPMI-1640, 50×](25×). If the study was performed under anaerobic conditions, fumarate (5.2 g/L) was added to increase growth of VRE strains. Carbon-free minimal media was prepared by leaving out glucose while nitrogen-free minimal media was prepared without the amino acid solution. Media was filter sterilized with a 0.22 micron filter and used immediately aerobically or degassed overnight if used anaerobically.
(§2) VRE strains were grown on R2A overnight before the cells were suspended in 0.9% saline to an OD of 0.38 (λ=595 nm). A 10% dilution of the cell suspension was prepared using VRE minimal media to achieve a final well OD of […] (λ=595 nm) greater than the sterile media OD. Both carbon and nitrogen source utilization were evaluated by adding the inoculated media and a filter-sterilised nutrient source solution into a well in a 1:1 ration to a final volume of 100 μL in aerobic tests and 200 μL in anaerobic tests. Carbon sources were tested individually and compared to a carbon-free control. To test nitrogen source utilization, a nitrogen source solution was prepared containing L-alanine (2 g/L), L-arginine (2.5 g/L, L-asparagine (0.71 g/L), L-aspartate (0.25 g/L), L-cysteine (0.625 g/L), L-glutamate (0.25 g/L), L-Glycine (0.125 g/L), L-histidine (0.1875 g/L), L-isoleucine (0.625 g/L), L-leucine (0.625 g/L), L-lysine HCl (0.5 g/L), L-methionine (0.1875 g/L), L-phenylalanine (0.1875 g/L), L-proline (0.25 g/L), L-serine (0.375 g/L), L-threonine (0.25 g/L), L-tryptophan (0.0625 g/L), L-tyrosine (0.29 g/L), L-valine (0.25 g/L), N-acetylglucosamine (2 g/L), and uracil (2.5 g/L). To test the strains' ability to utilize individual nitrogen sources, separate solutions were prepared eliminating one nitrogen source each. The change in growth compared to the complete nitrogen source solution control was used to determine nitrogen utilization. All carbon and nitrogen sources were tested in a technical triplicate for each biological replicate. Aerobic plates were incubated with a plate seal while anaerobic plates were not. The aerobic plate reader was set to read the plate (λ=595 nm, 37° C., 22 flashes per well, orbital shaking of 100 rpm for 15 s prior to each read) every 15 minutes for 24 hours. The anaerobic plate reader read the plate (λ=595 nm, 37° C., stationary) every 15 minutes for 24 hours.

[5] = system: vancomycin-resistant E. faecalis; assay: VRE nutrient utilization protocol: carbon sources; format: cell-based, Enterococcus faecalis; conditions: aerobic; VRE minimal medium
Procedure: as §1, §2

[6] = system: NDM-1 Enterobacter cloacae; assay: Nitrogen utilisation assay; format: cell-based; conditions: anaerobic; M9 minimal medium with glucose, 0.1% (w/v) nitrogen source
Procedure: (§3) New Delhi Metallo-β-lactamase 1 (NDM-1) Escherichia coli, NDM-1 Klebsiella pneumoniae, and NDM-1 Enterobacter cloacae were isolated from patients with intestinal CRE colonisation from the Imperial College Healthcare NHS Trust via rectal swab (REC ref. 19/LO/0112). The species were assigned by matrix assisted laser desorption ionization-time of flight (MALDI-TOF) mass spectrometry and later confirmed with 16S rRNA gene sequencing. CRE status was determined using X-pert Carba-R PCR detection (Cepheid, Sunnyvale, CA, USA), (Otter, J. A. et al. Detecting carbapenemase-producing Enterobacterales (CPE): an evaluation of an enhanced CPE infection control and screening programme in acute care. J Antimicrob Chemother 75, 2670-2676 (2020)).
(§4) Growth of CRE isolates on sole carbon or nitrogen sources was tested by inoculating each CRE isolate into a minimal medium supplemented with the nutrient of interest. First, CRE isolates were passaged from frozen glycerol stocks on Reasoner's 2A agar (R2A) plates. Cells were then suspended in M9 minimal media to a turbidity of 42% using a Turbidimeter (Biolog Inc.), then diluted a further 1 in 6 to inoculate the carbon or nitrogen utilisation assays. M9 minimal media contained the following (at final concentrations): 22 mM KH2PO4, 42 mM Na2HPO4, 9 mM NaCl, 0.49 mM MgSO4·7H2O, 0.09 mM CaCl2), 0.011 mM FeSO4·7H2O. For the carbon assays the M9 minimal medium was also supplemented with 0.1% (w/v) NH4Cl (as the nitrogen source) and the carbon sources were individually tested at 0.5% (w/v) concentration. For the nitrogen assays the M9 minimal medium was also supplemented with 0.5% (w/v) glucose (as the carbon source) and the nitrogen sources were individually tested at 0.1% (w/v) concentration. Cultures were incubated anaerobically and aerobically in a plate reader and OD600 readings were collected every 15 minutes for 24 hours.
(§5) Growth curves were analysed in Python (v3.6.5) using the AMiGA software (Midani, F. S., Collins, J. & Britton, R. A. AMiGA: Software for Automated Analysis of Microbial Growth Assays. mSystems 6, e0050821 (2021)). Growth of each isolate was measured with 6 wells from 2-3 independent experiments. Growth curves were normalised to the no substrate control using the subtraction method. AMiGA performed Gaussian Process regression to test differential growth between the substrate and the no substrate control. The functional difference in the OD (and its credible interval) was also computed between the substrate and the no substrate control.

[7] = system: NDM-1 Escherichia coli; assay: Nitrogen utilisation assay; format: cell-based; conditions: anaerobic; M9 minimal medium with glucose, 0.1% (w/v) nitrogen source
Procedure: as §3, §4, §5

[8] = system: NDM-1 Klebsiella pneumoniae; assay: Nitrogen utilisation assay; format: cell-based; conditions: M9 minimal medium with glucose, 0.1% (w/v) nitrogen source
Procedure: as §3, §4, §5

[9] = system: NDM-1 Enterobacter cloacae; assay: Individual metabolite inhibition assay; format: cell-based; conditions: LB pH 6.5, 16 hours anaerobic
Procedure: as §3
(§6) Each metabolite was tested individually in an inhibition assay against each CRE isolate. Each metabolite was tested at three concentrations: the low, average, and high concentrations that were measured in healthy faeces (from Table 1). LB was supplemented with each metabolite (at the three different concentrations) and compared to a no metabolite control. […] Overnight cultures of each CRE isolate were inoculated at 10^3 CFU/ml. Cultures were incubated anaerobically for 16 hours at 37° C. Growth was measured at OD600 after 16 hours of incubation. Growth of the CRE isolate in the presence of each metabolite was compared to the no metabolite control using a one-way ANOVA followed by Dunn's multiple comparison test.

[10] = system: NDM-1 Escherichia coli; assay: Individual metabolite inhibition assay; format: cell-based; conditions: LB pH 6.5, 16 hours anaerobic
Procedure: as §3, §6

[11] = system: NDM-1 Klebsiella pneumoniae; assay: Individual metabolite inhibition assay; format: cell-based; conditions: LB pH 6.5, 16 hours anaerobic
Procedure: as §3, §6

[12] = at average and high concentrations (Table 1)
[13] = at low, average, and high concentrations (Table 1)

CC(=O)N[C@H]1C(O)O[C@H](CO)[C@@H](O)[C@@H]1O (stereo partly drawn) [N-acetylglucosamine]
Use as sole carbon source to support E. cloacae growth [1]: could use | Use as sole carbon source to support E. coli growth [2]: could use | Use as sole carbon source to support K. pneumoniae growth [3]: could use | Use as sole carbon source to support E. faecium growth [4]: could use | Use as sole carbon source to support E. faecalis growth [5]: could use | Use as sole nitrogen source to support E. cloacae growth [6]: could use | Use as sole nitrogen source to support E. coli growth [7]: could use | Use as sole nitrogen source to support K. pneumoniae growth ([8]; aerobic): not able to use | Use as sole nitrogen source to support K. pneumoniae growth ([8]; anaerobic): could use

CC(=O)O [acetate]
E. cloacae growth (OD600) with individual metabolite [9, 12]: inhibited | E. coli growth (OD600) with individual metabolite [10, 13]: inhibited | K. pneumoniae growth (OD600) with individual metabolite [11, 12]: inhibited

CCCC(=O)O [butyrate]
E. cloacae growth (OD600) with individual metabolite [9, 13]: inhibited | E. coli growth (OD600) with individual metabolite ([10]; at high concentrations (Table 1)): inhibited | K. pneumoniae growth (OD600) with individual metabolite [11, 13]: inhibited

CCO [ethanol]
E. cloacae growth (OD600) with individual metabolite ([9]; at the high concentration (Table 1)): inhibited | E. coli growth (OD600) with individual metabolite [10, 12]: inhibited

CC(C)C(=O)O [isobutyrate]
E. cloacae growth (OD600) with individual metabolite [9, 12]: inhibited | K. pneumoniae growth (OD600) with individual metabolite [11, 12]: inhibited

CCC(=O)O [propionate]
E. cloacae growth (OD600) with individual metabolite [9, 12]: inhibited | E. coli growth (OD600) with individual metabolite [10, 12]: inhibited | K. pneumoniae growth (OD600) with individual metabolite [11, 12]: inhibited

OC[C@H]1O[C@H](O[C@H]2O[C@H](CO)[C@@H](O)[C@H](O)[C@H]2O)[C@H](O)[C@@H](O)[C@@H]1O [trehalose, D-trehalose]
Use as sole carbon source to support E. cloacae growth [1]: could use | Use as sole carbon source to support E. coli growth [2]: could use | Use as sole carbon source to support K. pneumoniae growth [3]: could use | Use as sole carbon source to support E. faecium growth [4]: could use | Use as sole carbon source to support E. faecalis growth [5]: could use

CCCCC(=O)O [valerate]
E. cloacae growth (OD600) with individual metabolite [9, 13]: inhibited | E. coli growth (OD600) with individual metabolite [10, 12]: inhibited | K. pneumoniae growth (OD600) with individual metabolite [11, 12]: inhibited
